Where a name gives a salt, the structure may show the parent alone. Read-outs that look alike come from different tables or passages of the source.

The target of experiment [1] is T1, human, citrated, platelet-rich plasma (Homo sapiens, UniProt P05106+P08514).
T1 construct: aggregating human, citrated, platelet-rich plasma; endogenous in cells; host or cells: human platelets in citrated platelet-rich plasma
The experiment can be described thus: Test (a): inhibition of ADP stimulated platelet aggregation (Born). As to conditions: ADP induced aggregation of human platelet-rich plasma. It counts as cell-based. In a few lines: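 ADP added to human citrated platelet-rich plasma to build aggregation dose-response curves, repeated with increasing test compound (generally 10-^5 M to 10-^10 M). pA2 derived from the 50% response value for ADP with vs. without compound, averaged over several concentrations.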

Experiment [2] deals with T2, purified human platelet fibrinogen receptor (GPIIb/IIIa) (Homo sapiens, UniProt P05106+P08514).
T2 construct: is isolated from human platelet lysates; from tissue
Nature of the experiment: Test (b): GPIIb/IIIa ELISA, inhibition of biotinylated fibrinogen binding. To be noted: purified human platelet GPIIb/IIIa, ELISA. The gist of the method:
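GPIIb/IIIa affinity-purified from human platelet lysates was coated on plates, blocked, then incubated 2 h at 30 °C with biotinylated fibrinogen ([…]) plus compound. Bound fibrinogen detected via streptavidin/biotinylated HRP and TMB, OD at 650 nm; pIC50 for 50% binding inhibition.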
In general terms: An ELISA detects its analyte on a solid surface through an enzyme-linked reagent.

[3] abbreviates: read-out: Test (a): pA2 value indicating potency of platelet aggregation inhibition (converted).
The mark [4] stands for this setting: read-out: Test (b): pIC50 (-log(IC50)), 50% inhibition of biotinylated fibrinogen binding to GPIIb/IIIa (converted).

T2 sequence (P08514 32-887 limits assumed): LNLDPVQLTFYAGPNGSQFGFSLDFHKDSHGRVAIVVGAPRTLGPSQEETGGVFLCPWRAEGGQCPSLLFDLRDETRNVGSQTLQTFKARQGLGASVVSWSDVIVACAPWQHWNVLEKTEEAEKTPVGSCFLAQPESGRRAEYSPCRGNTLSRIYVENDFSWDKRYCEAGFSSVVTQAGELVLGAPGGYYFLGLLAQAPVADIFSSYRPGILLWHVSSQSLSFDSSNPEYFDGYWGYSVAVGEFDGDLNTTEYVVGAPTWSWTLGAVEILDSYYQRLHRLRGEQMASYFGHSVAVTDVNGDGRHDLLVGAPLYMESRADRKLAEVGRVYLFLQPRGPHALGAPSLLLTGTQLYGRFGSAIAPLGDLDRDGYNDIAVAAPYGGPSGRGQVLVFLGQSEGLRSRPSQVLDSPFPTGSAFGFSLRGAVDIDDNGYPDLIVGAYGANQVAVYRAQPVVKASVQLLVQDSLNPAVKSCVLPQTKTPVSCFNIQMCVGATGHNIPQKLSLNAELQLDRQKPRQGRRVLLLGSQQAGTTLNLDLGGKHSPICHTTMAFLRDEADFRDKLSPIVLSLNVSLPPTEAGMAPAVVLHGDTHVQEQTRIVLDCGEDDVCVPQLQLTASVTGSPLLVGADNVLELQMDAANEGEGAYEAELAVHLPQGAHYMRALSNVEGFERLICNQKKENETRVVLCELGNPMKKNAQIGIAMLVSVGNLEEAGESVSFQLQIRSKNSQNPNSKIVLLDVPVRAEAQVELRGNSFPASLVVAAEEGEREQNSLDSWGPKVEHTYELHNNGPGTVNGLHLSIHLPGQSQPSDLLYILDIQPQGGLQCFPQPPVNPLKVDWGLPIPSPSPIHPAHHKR
T2 sequence (P08514 891-1039 limits assumed): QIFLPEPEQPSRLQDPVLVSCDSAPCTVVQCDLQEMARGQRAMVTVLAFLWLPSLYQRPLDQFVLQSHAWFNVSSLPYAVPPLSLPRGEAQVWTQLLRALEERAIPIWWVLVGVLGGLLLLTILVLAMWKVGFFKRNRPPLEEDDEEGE
T2 sequence (P05106 27-788): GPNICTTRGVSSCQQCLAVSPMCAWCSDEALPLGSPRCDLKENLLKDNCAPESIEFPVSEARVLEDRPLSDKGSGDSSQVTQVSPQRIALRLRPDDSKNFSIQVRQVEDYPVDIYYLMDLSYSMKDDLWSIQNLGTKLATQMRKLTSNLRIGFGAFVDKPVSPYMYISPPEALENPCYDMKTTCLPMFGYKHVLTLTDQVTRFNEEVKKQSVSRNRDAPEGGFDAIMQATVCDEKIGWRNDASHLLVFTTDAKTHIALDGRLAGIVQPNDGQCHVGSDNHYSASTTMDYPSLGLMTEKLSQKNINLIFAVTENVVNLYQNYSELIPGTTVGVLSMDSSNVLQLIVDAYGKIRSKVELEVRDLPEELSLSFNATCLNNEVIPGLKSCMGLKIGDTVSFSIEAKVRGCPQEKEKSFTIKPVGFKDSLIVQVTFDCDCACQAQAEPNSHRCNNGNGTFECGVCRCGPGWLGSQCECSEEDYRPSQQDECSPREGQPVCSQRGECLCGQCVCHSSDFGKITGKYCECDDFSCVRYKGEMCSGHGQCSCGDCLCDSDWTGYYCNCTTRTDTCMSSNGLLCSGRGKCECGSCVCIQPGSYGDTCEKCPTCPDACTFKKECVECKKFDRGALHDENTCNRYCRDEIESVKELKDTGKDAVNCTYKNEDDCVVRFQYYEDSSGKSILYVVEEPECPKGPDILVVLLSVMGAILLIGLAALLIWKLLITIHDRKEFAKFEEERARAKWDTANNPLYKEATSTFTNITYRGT
T1 sequence (P08514 32-887 limits assumed): as the sequence (P08514 32-887 limits assumed) above
T1 sequence (P08514 891-1039 limits assumed): as the sequence (P08514 891-1039 limits assumed) above
T1 sequence (P05106 27-788): as the sequence (P05106 27-788) above

Take `O=C(O)COc1ccc(NC(=O)C2CCN(c3ccncc3)CC2)cc1` [Example 164]: the Kb in experiment [1] (setting [3]) is 7.94 nM. In experiment [2] (setting [4]), the IC50 was 39.8 to 63.1 nM.
Regarding `O=C(O)COc1ccc(C(=O)CN2CCN(c3ccncn3)CC2)cc1` [Example 48, 4-[2-[4-(4-Pyrimidinyl)piperazin-1-yl]acetyl]phenoxyacetic acid], the Kb in experiment [1] (setting [3]) is 10000 nM. The IC50 in experiment [2] (setting [4]) is 251 nM.
The matching figures for `O=C(O)CCCOc1cccc(N2CCN(c3ccncc3)CC2)c1` [Example 227, 3-[4-(4-Pyridyl)piperazin-1-yl]phenoxybutyric acid]: 2510 nM and 100 nM.
On the same counts, the results for `O=C(O)COc1ccc(C(=O)CN2CCN(c3ccncc3)CC2=O)cc1` [Example 62, 4-[2-[4-(4-Pyridyl)piperazin-2-one-1-yl]acetyl]phenoxyacetic acid] are 2.51 to 12.6 nM and 7.94 nM.
On the same counts, the results for `CCCCS(=O)(=O)N[C@@H](Cc1ccc(OCC2CCN(c3ccncc3)CC2)cc1)C(=O)O` [Example 34, 2-S-(n-Butylsulphonylamino)-3-[4-[1-(4-pyridyl)piperidin-4-yl]methoxyphenyl]propionic acid] are 2 nM and 2 nM.
As to `COC(=O)COc1ccc(NC(=O)C2CCN(c3ccncc3)CC2)cc1` [Example 163, Methyl 4-[[1-(4-pyridyl)piperidin-4-yl]carboxamido]phenoxyacetate, hydrochloride], the Kb in experiment [1] (setting [3]) is 398 nM. Besides, the IC50 in experiment [2] (setting [4]) was 251 nM.
Turning to `Cc1ccc(S(=O)(=O)NCCc2ccc(NC(=O)C3CCN(c4ccncc4)CC3)cc2)cc1` [Example 184, N-[2-[4-[1-(4-Pyridyl)piperidin-4-yl]carboxamidophenyl]ethyl]-4-methylphenylsulphonamide], the Kb in experiment [1] (setting [3]) is 5010 nM. For the same molecule, in experiment [2] (setting [4]), the IC50 was > 100000 nM.
On the same counts, the results for `O=C(O)COc1ccc(C(=O)CN2CCN(c3ccnc4ccccc34)CC2)cc1` [Example 44, 4-[2-[4-(4-Quinolinyl)piperazin-1-yl]acetyl]phenoxyacetic acid trifluoroacetate salt] are 10000 nM and 100 nM.
With `COC(=O)COc1ccc(C(=O)CN2CCN(c3cc(C)nc4ccccc34)CC2)cc1` [Example 41, Methyl 4-[2-[4-(2-methyl-4-quinolinyl)piperazin-1-yl]acetyl]phenoxyacetate], in experiment [1] (setting [3]), the Kb is > 100000 nM. In addition, in experiment [2] (setting [4]), the IC50 was > 100000 nM.
With `O=C(O)CCc1ccc(C(=O)CN2CCN(c3ccncc3)CC2)cc1` [Example 12, 3-[4-[2-[4-(4-Pyridyl)piperazin-1-yl]acetyl]phenyl]propionic acid], in experiment [1] (setting [3]), the Kb is 501 nM. Further, in experiment [2] (setting [4]), the IC50 is 63.1 nM.
On the same counts, the results for `O=C(O)C[C@H](NC(=O)CNC(=O)CN1CCN(c2ccncc2)CC1)C(=O)N[C@@H](Cc1ccccc1)C(=O)O` [Example 40] are 79.4 nM and 20 nM.
For the molecule `COC(=O)CNc1ccc(OC(=O)CC2CCN(c3ccncc3)CC2)cc1` [Example 172, 4-Methyloxycarbonylmethylamiophenyl [1-(4-pyridyl)piperidin4-yl]acetate], the Kb in experiment [1] (setting [3]) is 6310 nM. Moreover, in experiment [2] (setting [4]), the IC50 is 50100 nM.
`O=C(O)COc1ccc2nc(N3CCN(c4ccncc4)CC3)ccc2c1` [Example 73, 2-[4-(4-Pyridyl)piperazin-1-yl]quinolin-6-yloxyacetic acid]: in experiment [1] (setting [3]), the Kb was 501 nM. Moreover, in experiment [2] (setting [4]), the IC50 was 63.1 nM.
With `COC(=O)CCCCc1ccc(CN2CCN(c3ccncc3)CC2)cc1` [Example 179, Methyl 5-[4-[4-(4-pyridyl)piperazin-1-yl]methylphenyl]pentanoate], in experiment [1] (setting [3]), the Kb is 15800 nM. Moreover, in experiment [2] (setting [4]), the IC50 was 3980 nM.
Consider `CCCCS(=O)(=O)NC(CC(=O)OC)c1ccc(OCC2CCN(c3ccncc3)CC2)cc1` (centres unmarked) [Example 97, Methyl 3-(n-butylsulphonylamino)-3-[4-[1-(4-pyridyl)piperidin-4-yl]-methoxyphenyl]propionate], for which the Kb in experiment [1] (setting [3]) was 3980 nM. Moreover, the IC50 in experiment [2] (setting [4]) is 3160 nM.
On the same counts, the results for `CCOC(=O)CCCCOc1ccc(N2CCN(c3ccncc3)CC2)cc1` [Example 52] are 10000 nM and > 100000 nM.
On the same counts, the results for `CN(Cc1ccc(-c2ccc(OCC(=O)O)cc2)cc1)c1ccncc1` [Example 75, 4-[4'-[N-Methyl-N-(4-pyridyl)]aminomethyl]biphenyloxyacetic acid] are 31600 nM and 3980 nM.
The matching figures for `CCCCS(=O)(=O)NCc1ccc(C(=O)CN2CCN(c3ccncc3)CC2)cc1` [Example 22, N-[4-[2-[4-(4-Pyridyl)piperazin-1-yl]acetyl]phenyl]methyl-1-butanesulphonamide]: 126 to 200 nM and 3980 nM.
On to `CC(C)(C)COC(=O)COc1ccc(C(=O)CN2CCN(c3ccncc3)CC2)cc1` [Example 139, Neopentyl 4-[2-[4-(4-pyridyl)piperazin-1-yl]acetyl]phenoxyacetate], for which the Kb in experiment [1] (setting [3]) is 251 nM. Besides, the IC50 in experiment [2] (setting [4]) was 3980 nM.
For `Cc1ccc(S(=O)(=O)NCc2ccc(C(=O)CN3CCN(c4ccncc4)CC3)cc2)cc1` [Example 21, N-[4-[2-[4-(4-Pyridyl)piperazin-1-yl]acetyl]phenyl]methyl-4-methylphenylsulphonamide], the Kb in experiment [1] (setting [3]) is 63.1 to 158 nM. Further, the IC50 in experiment [2] (setting [4]) was 158 to 501 nM.
On to `CCOC(=O)C1CCN(C(=O)CN2CCN(c3ccncc3)CC2)CC1` [Example 27, Ethyl 1-[2-[4-(4-pyridyl)piperazin-1-yl]acetyl]piperidin-4-carboxylate], for which the Kb in experiment [1] (setting [3]) was 7940 nM. For the same molecule, the IC50 in experiment [2] (setting [4]) was 2510 nM.
Regarding `COC(=O)COc1ccc(C(=O)CCN2CCN(c3ccncc3)CC2)cc1` [Example 7, Methyl 4-[3-[4-(4-pyridyl)piperazin-1-yl]propanoyl]phenoxyacetate], in experiment [1] (setting [3]), the Kb was 501 nM. Besides, the IC50 in experiment [2] (setting [4]) was 3980 to 6310 nM.
On the same counts, the results for `O=C(O)[C@H](Cc1ccc(OCCC2CCN(c3ccncc3)CC2)cc1)NS(=O)(=O)Cc1ccccc1` [Example 89, 2-S-(Benzylsulphonylamino)-3-[4-[2-[1-(4-pyridyl)piperidin-4-yl]ethoxy]phenyl]propionic acid] are 39.8 nM and 2 nM.
`COC(=O)COc1ccc(C(=O)CN2CCN(c3ccnc4c3CCCC4)CC2)cc1` [Example 45, Methyl 4-[2-[4-(5,6,7,8-tetrahydro-4-quinolinyl)piperazin-1-yl]-acetyl]phenoxyacetate]: the Kb in experiment [1] (setting [3]) was 3980 nM. The IC50 in experiment [2] (setting [4]) was 794 nM.
The matching figures for `COC(=O)C(Oc1ccc(C(=O)CN2CCN(c3ccncc3)CC2)cc1)C(=O)OC` [Example 140, Dimethyl 4-[2-[4-(4-pyridyl)piperazin-1-yl]acetyl]phenoxymalonate]: 1580 nM and 501 nM.
The matching figures for `COC(=O)COc1cc(OCC(=O)OC)cc(C(=O)CN2CCN(c3ccncc3)CC2)c1` [Example 133, Dimethyl 2,2'-[5-[2-[4-(4-pyridyl)piperazin-1-yl]acetyl]phenylene-1,3-dioxy]diacetate]: 2000 nM and 31600 nM.
Turning to `CC(C(=O)c1ccc(OCC(=O)O)c(OCC(=O)O)c1)N1CCN(c2ccncc2)CC1` (centres unmarked) [Example 79, 4-[2-[(4-Pyridyl)piperazin-1-yl]-2-methyl]acetyl-1,2-diphenoxydiacetic acid], the Kb in experiment [1] (Test (a): pA2 value indicating potency of platelet aggregation inhibition) is 12.6 nM. The IC50 in experiment [2] (Test (b): pIC50 (-log(IC50)), 50% inhibition of biotinylated fibrinogen binding to GPIIb/IIIa) is 3.16 nM.
On to `COC(=O)CCNC(=O)c1ccc(N2CCN(c3ccncc3)CC2)nc1` [Example 69, Methyl 3-[6-[4-(4-pyridyl)piperazin-1-yl]pyrid-3-ylcarboxamido]propionate], for which, in experiment [1] (setting [3]), the Kb was 12600 nM. In experiment [2] (setting [4]), the IC50 was 3980 nM.
On the same counts, the results for `CCCCS(=O)(=O)N[C@@H](Cc1ccc(OCCC2CCN(c3ccncc3)CC2)cc1)C(=O)O` [Example 36, 2-S-(n-Butylsulphonylamino)-3-[4-[2-[1-(4-pyridyl)piperidin-4-yl]ethoxy]phenyl]propionic acid] are 2 nM and 1 nM.
Regarding `O=C(O)COC1CCCN(C(=O)CN2CCN(c3ccncc3)CC2)C1` (centres unmarked) [Example 104, 1[2-[4-(4-Pyridyl)piperazin-1yl]acetyl]piperidin-3-yloxyacetic acid], in experiment [1] (setting [3]), the Kb is > 100000 nM. Moreover, the IC50 in experiment [2] (setting [4]) is 20000 nM.
As for `O=C(O)C[C@H](NC(=O)c1ccc(N2CCN(c3ccncc3)CC2)cc1)C(=O)NCCc1ccccc1` [Example 192, (S)-3-[N-[2-Phenenthyl]carboxamido]-3-[4-[4-(4-pyridyl)piperazin-1-yl]]-benzamidopropionic acid], the Kb in experiment [1] (setting [3]) was > 100000 nM. For the same molecule, the IC50 in experiment [2] (setting [4]) is 251 nM.
For `COC(=O)CCNC(=O)c1ccc(N2CCN(c3ccncc3)CC2)cc1` [Example 56, Methyl 3-[4-[4-(4-pyridyl)piperazin-1-yl]]benzaminopropionate], in experiment [1] (setting [3]), the Kb was 3160 nM. The IC50 in experiment [2] (setting [4]) is 15800 nM.
The matching figures for `O=C(O)CCCOc1ccc(N2CCN(c3ccncc3)CC2)cc1` [Example 200, 4-[4-[4-(4-Pyridyl)piperazine-1-yl]phenoxy]butyric acid, hydrochloride salt]: 12.6 nM and 3.98 nM.
On the same counts, the results for `O=C(O)COc1c(Cl)cc(C(=O)CN2CCN(c3ccncc3)CC2)cc1Cl` [Example 123, 4-[2-[4-(4-Pyridyl)piperazin-1-yl]acetyl]-2,6-dichlorophenoxyacetic acid, dihydrochloride] are 1000 nM and 100 nM.

(Values after patent publication US5750754A, “Heterocyclic compounds” (Zeneca Limited, priority 1993, dated 1998).)
